Data on six molecules can be found in US20020082200A1, “Use of inhibitors of human S-CD23” (SmithKline Beecham p.1.c., priority 1994, published 2002).

What all share (assay type): cell-based
One assay concerns soluble CD23. The assay is described as follows: Inhibition of release of soluble CD23 from CD23-transfected CHO cells (Procedure 1). The settings on record: CHO cells transfected with alpha form of CD23, 6 hours, ELISA of supernatant; read-out: IC50 (concentration which inhibits the release of soluble CD23 by 50% relative to the control culture). As for the experimental part:
The ability of test compounds to inhibit the release of soluble CD23 was investigated by use of the following procedure.
Adherent Chinese Hamster Ovary cells which had been transfected with the alpha form of CD23 were grown in microtitre plates. Cells were grown to confluence in α-MEM medium with 10% foetal calf serum, 2 mM glutamine containing 800 micro g/ml G418. Medium was removed and the cells washed with sterile phosphate buffered saline. Test compounds were dissolved in dimethyl sulphoxide at a stock concentration of 20 mM, then diluted 1 in 200 with α-MEM containing 800 micro g/ml G418 (no foetal calf serum). […] of the diluted compounds were added to the adherent cells in triplicate wells. Appropriate control cultures were set up in triplicate. The plates were incubated for 6 hours at 37° C., 95% air/5% CO2 in a humidified incubator, then centrifuged at 200× g for 3 minutes. A specific ELISA for CD23, obtained from The Binding Site Limited, Institute of Research and Development, Birmingham England, was used to measure CD23 levels in the culture supernatants.
A general note: An ELISA detects its analyte on a solid surface through an enzyme-linked reagent.

The test system of assay [1] is Human peripheral blood mononuclear cells. The experiment in a line: Inhibition of formation of human IgE in vitro, peripheral blood mononuclear cells with IL4 (Procedure 3). Conditions: 12 days, ELISA, IL4 alone 72.4, TCM 0.25. Here is the method: (§1) The ability of test compounds to inhibit the formation of human IgE in vitro was investigated using the following procedure:
Human peripheral blood mononuclear cells were separated by centrifugation over Ficoll-Paque (Pharmacia). The cells were suspended in RPMI 1640 medium containing 10% foetal calf serum, 2 mM glutamine, 50 microM 2-mercaptoethanol and 50 micro g/ml gentamycin (TCM) at a concentration of 1.25×10^6 cells/ml. 800 micro l of the cell suspension were aliquoted into the wells of a 48 well plate. […] Test compounds are dissolved in dimethylsulphoxide (DMSO) at a stock dilution of
10^−2M diluted 1 in 100 in TCM and then as above. The plates are incubated for 12 days at 37° C. in a 95% air/5% CO2 humidified incubator. At the end of the culture period the supernatants were removed with the wells and centrifuged (200× g for 10 minutes) to remove any non-adherent cells. There was no toxicity as assessed by trypan blue dye exclusion. The IgE concentration in the supernatants was measured by ELISA.

Assay [2] deals with Human tonsillar B lymphocytes. The experiment in a line: Inhibition of formation of human IgE in vitro, tonsillar B lymphocytes with IL4 and anti-CD40 (Procedure 4). Conditions: 11 days, ELISA, stimulated control 11.7, TCM 1.9. Here is the method: as §1
Human tonsillar B lymphocytes were suspended in RPMI 1640 medium containing 10% foetal calf serum, 2 mM glutamine, 50 micro M 2-mercaptoethanol and 50 micro g/ml gentamycin (TCM) at a concentration of 1.25×10^6 cells/ml. 800 micro l of the cell suspension were aliquoted into the wells of a 48 well plate. 100 micro l of TCM or IL4 at 100 ng/ml and antibody to CD40 at 10 microg/ml was added in quadriplicate to the appropriate wells, followed by 100 micro l of TCM or 10× the final concentration of compound under investigation. Test compounds are dissolved in DMSO at a stock dilution of 10^−2M diluted 1 in 100 in TCM and then as above. The plates are incubated for 11 days at 37° C. in a 95% air/5% CO2 humidified incubator. At the end of the culture period the supernatents were removed from the wells and centrifuged (200× g for 10 minutes) to remove any non-adherent cells. There was no toxicity as assessed by trypan dye exclusion. The IgE concentration in the supernatants was measured by ELISA.

`CNC(=O)[C@@H](Cc1ccccc1)NC(=O)[C@H](CC(C)C)[C@H](CSc1cccs1)C(=O)N[O-].[Na+]` [P1, [4-(N-Hydroxyamino)-2-(R)-isobutyl-3-(S)-(2-thiophenethiomethyl)succinyl]-(S)-phenylalanine-N-methylamide, Sodium Salt]: the IC50 in the assay on soluble CD23 is 0.05 µM. For the same molecule, the “IgE ng/ml (mean +/− sem)” value is 3.2 ± 1.9 ng/mL in assay [1] (IL4 (5 ng/ml) with compound at 10^−5 M); 21.3 ± 16.5 ng/mL in assay [1] (IL4 (5 ng/ml) with compound at 10^−6 M); 68.8 ± 21.8 ng/mL in assay [1] (IL4 (5 ng/ml) with compound at 10^−7 M); 2.9 ± 0.2 ng/mL in assay [2] (IL4 (10 ng/ml) and anti CD40 (1 micro g/ml) with compound at 10^−5 M); 4.3 ± 0.6 ng/mL in assay [2] (IL4 (10 ng/ml) and anti CD40 (1 micro g/ml) with compound at 10^−6 M); 6.2 ± 0.5 ng/mL in assay [2] (IL4 (10 ng/ml) and anti CD40 (1 micro g/ml) with compound at 10^−7 M).
Take `CNC(=O)[C@@H](Cc1ccc(OC)cc1)NC(=O)C(CC(=O)NO)CC(C)C` (stereo partly drawn) [P3, N-[3-(N′-Hydroxycarboxamido)-2-(2-methylpropyl)-propanoyl]-(S)-O-methyl-L-tyrosine-N-methylamide]: the IC50 in the assay on soluble CD23 stood at 3.35 µM.
On to `CNC(=O)[C@H](Cc1c[nH]c2ccccc12)NC(=O)[C@H](CC(C)C)[C@@H](S)CC(=O)OC` [P4, Methyl 3-(S)-mercapto-6-methyl-4-(S)-[[[1(S)-[(methylamino)carbonyl]-2-(3-indolyl)ethyl]amino]carbonyl]heptanoate], for which, in the assay on soluble CD23, the IC50 was 2.2 µM.
As for `CNC(=O)[C@H](Cc1c[nH]c2ccccc12)NC(=O)[C@H](CC(C)C)[C@@H](S)CC(=O)OC(C)C` [P5, Isopropyl 3-(S)-mercapto-6-methyl-4-(S)-[[[1(S)-[(methylamino)carbonyl]-2-(3-indolyl)ethyl]amino]carbonyl]heptanoate], in the assay on soluble CD23, the IC50 was 60 µM.
Turning to `CNC(=O)[C@H](Cc1ccc(OC)cc1)NC(=O)[C@H](CC(C)C)[C@@H](S)CC(N)=O` [P6, 3-(S)-Mercapto-N^1-[1-(S)-[(methylamino)carbonyl]-2-(4-methoxyphenyl)ethyl]-2-(S)-(2-methylpropyl)pentanediamide], the IC50 with soluble CD23 came out at 60 µM.
`CC[C@@H](N[C@@H](CC(C)C)C(=O)N[C@@H](Cc1ccc(OC)cc1)C(=O)NC)P(=O)(O)O` [P7, N-[N-((S)-1-Phosphonopropyl)-(S)-leucyl]-O-methyl-(S)-tyrosine N-methylamide]: in the assay on soluble CD23, the IC50 was 30 µM.
